Data as given in the NIST ThermoML archive (doi:10.1016/j.tca.2014.04.012).
± gives the expanded uncertainty stated by the source.

Conditions: Crystal; visual observation

| SMILES | Normal melting temperature [°C] |
| --- | --- |
| CCN1C(=O)N(CC)C2NC(=O)NC21 (configuration not stated) | 310.00 ± 2 |
| CN1C(=O)N(C)C2NC(=O)NC21 (configuration not stated) | 260.00 ± 2 |
